In ChEMBL document CHEMBL5038635, “Discovery of Salidroside-Derivated Glycoside Analogues as Novel Angiogenesis Agents to Treat Diabetic Hind Limb Ischemia” (J Med Chem, 2022):
Activity calls are given as the source filed them. No cut-off for these calls is given here.

How the values were obtained:
C2C12 [1] = experiment: Angiogenic activity in mouse C2C12 cells assessed as accumulation PDGF-BB protein expression at 300 uM by Western blot analysis; assay type: functional, cell-based
C2C12 [2] = experiment: Angiogenesis activity in mouse C2C12 cells with silenced HIF-1alpha assessed increase in cell migration at 30 uM under hyperglycemic condition incubated for 24 hrs by crystal violet dye based transwell chamber assay; assay type: functional
C2C12 [3] = experiment: Upregulation of ANGPTL4 protein expression in mouse C2C12 cells at 30 uM by Western blot analysis; assay type: functional, cell-based
C2C12 [4] = experiment: Upregulation of VEGF-A protein expression in mouse C2C12 cells at 30 uM by Western blot analysis; assay type: functional, cell-based
MOVAS-1 [5] = experiment: Induction proliferation of mouse MOVAS-1 cells assessed as increase in number of EdU-positive cells using conditioned medium of mouse C2C12 cells treated at 30 uM under hyperglycemic condition for 12 hrs followed by hypoxia for 24 hrs by EdU-incorporation assay; assay type: functional; settings: time 36 hrs
C2C12 [6] = experiment: Apoptotic rate in mouse C2C12 cells with silenced HIF-1alpha assessed as viable cells at 30 uM by AnnexinV-FITC/PI staining based FACS analysis (reference value: 86.05 %); assay type: functional; settings: read-out: Activity
C2C12 [7] = experiment: Induction proliferation of mouse C2C12 cells assessed as suppression of apoptotic rate at 30 uM under normoglycemic condition by Annexin V/PI staining based Flowcytometry method; assay type: functional, cell-based
C2C12 [8] = experiment: Apoptotic rate in hyperglycemia-treated mouse C2C12 cells assessed as late apoptotic cells at 30 uM by AnnexinV-FITC/PI staining based flow cytometric analysis (reference value: 10.44 %); assay type: functional
[9] = target: Hypoxia-inducible factor 1-alpha (Mus musculus) (UniProt Q61221); experiment: Inhibition of HIF-1alpha in mouse C2C12 cells transfected with PDGF-B driven firefly luciferase gene assessed as transcriptional activity pretreated with compound for 12 hr followed by hypoxic condition for 24 hrs by dual luciferase reporter gene assay; assay type: cell-based; settings: time 36.0 hrs
Mus musculus [10] = experiment: Antidiabetic activity in diabetic HLI C57BL/6 mouse model assessed as increase in blood perfusion recovery at 30 mg/kg administered intramuscularly; assay type: functional, organism-based
Mus musculus [11] = experiment: Angiogenic activity in diabetic HLI C57BL/6 mouse model assessed as increase in number of PECAM-1-positive cells at 30 mg/kg administered intramuscularly for 21 days followed by surgery by immunofluorescence analysis; assay type: functional, organism-based; settings: time 21.0 day
C2C12 [12] = experiment: Induction proliferation of mouse C2C12 cells at 30 uM pretreated with compound in hyperglycemia condition for 12 hr followed by hypoxia condition for 24 hrs presence of MeOE2 inhibitor by EdU-incorporation assay; assay type: functional, cell-based; settings: time 36.0 hrs
C2C12 [13] = experiment: Upregulation of TNFRSF12A protein expression in mouse C2C12 cells at 30 uM by Western blot analysis; assay type: functional, cell-based
[14] = Dissociation constant, pKa of compound by UV-visible spectrometric method; assay type: physicochemical
C2C12 [15] = experiment: Apoptotic rate in hyperglycemia-treated mouse C2C12 cells assessed as viable cells at 15 uM by AnnexinV-FITC/PI staining based flow cytometric analysis (reference value: 81.90 %); assay type: functional; settings: read-out: Activity
MOVAS-1 [16] = experiment: Induction proliferation of mouse MOVAS-1 cells assessed as increase in number of EdU-positive cells using conditioned medium of mouse C2C12 cells with silenced HIF-1alpha treated at 30 uM under hyperglycemic condition for 12 hrs followed by hypoxia for 24 hrs in presence of VEGFR inhibitor Ki8751 by EdU-incorporation assay; assay type: functional, cell-based; settings: time 36.0 hrs
C2C12 [17] = experiment: Induction proliferation of mouse C2C12 cells with silenced HIF-1alpha at 30 uM pretreated with compound in hyperglycemia condition for 12 hr followed by hypoxia condition for 24 hrs by EdU-incorporation assay; assay type: functional, cell-based; settings: time 36.0 hrs
C2C12 [18] = experiment: Upregulation of […] protein expression in mouse C2C12 cells at 30 uM by Western blot analysis; assay type: functional, cell-based
HUVEC = experiment: Antiangiogenesis activity in human HUVEC cells assessed as suppression of cell migration using conditioned medium of mouse C2C12 cells with silenced HIF-1alpha treated at 30 uM under hyperglycemic condition for 12 hrs followed by hypoxia for 24 hrs in presence of PDGF-BB inhibitor CP868596 by crystal violet dye based transwell assay; assay type: functional; settings: time 36.0 hrs
MOVAS-1 [19] = experiment: Angiogenic activity in mouse MOVAS-1 cells assessed as suppression of F-actin polymerization at 30 uM using conditioned medium of mouse C2C12 cells treated at 30 uM under hyperglycemic condition for 12 hrs followed by hypoxia for 12 hrs by phalloidin staining based confocal microscopy; assay type: functional, cell-based; settings: time 24.0 hrs
C2C12 [20] = experiment: Angiogenesis activity in mouse C2C12 cells assessed as increase in cell migration at 30 uM under hyperglycemic condition for 12 hrs followed by hypoxia for 24 hrs presence of MeOE2 inhibitor by crystal violet dye based transwell assay; assay type: functional; settings: time 36.0 hrs
C2C12 [21] = experiment: Upregulation of CXCL17 protein expression in mouse C2C12 cells at 30 uM by Western blot analysis; assay type: functional, cell-based
[22] = Toxicity in diabetic HLI C57BL/6 mouse model assessed as heart pathology at 30 mg/kg, IM administered by HE staining based assay; assay type: organism-based; settings: in vivo
C2C12 [23] = experiment: Apoptotic rate in mouse C2C12 cells with silenced HIF-1alpha assessed as necrotic cells at 30 uM by AnnexinV-FITC/PI staining based FACS analysis (reference value: 0.31 %); assay type: functional
[24] = Permeability coefficient across basolateral to apical side in human Caco-2 cells by HPLC-UV analysis
C2C12 [25] = experiment: Induction of proliferation of hyperglycemia-induced mouse C2C12 cell apoptosis assessed as decrease in Annexin V/PI-positive cells at 15 uM pretreated with compound under hyperglycemia condition for 12 hr followed by hypoxia for 24 hrs; assay type: functional, cell-based; settings: time 36.0 hrs
C2C12 [26] = experiment: Increase in VEGF-A protein expression level in […] mouse C2C12 cells at 30 uM by Western blot analysis; assay type: functional, cell-based
C2C12 [27] = experiment: Apoptotic rate in hyperglycemia-treated mouse C2C12 cells assessed as viable cells at 30 uM by AnnexinV-FITC/PI staining based flow cytometric analysis (reference value: 81.90 %); assay type: functional; settings: read-out: Activity
Mus musculus [28] = experiment: Angiogenic activity in diabetic HLI C57BL/6 mouse model assessed as increase in number of PECAM-1/alpha-SMA double-positive cells at 30 mg/kg, im administered for 21 days followed by surgery by immunofluorescence analysis; assay type: functional, organism-based; settings: time 21.0 day
C2C12 [29] = experiment: Effect on PHD1 mRNA expression in mouse C2C12 cells at 30 uM by qRT-PCR analysis; assay type: functional, cell-based
C2C12 [30] = experiment: Apoptotic rate in hyperglycemia-treated mouse C2C12 cells assessed as necrotic cells at 30 uM by AnnexinV-FITC/PI staining based flow cytometric analysis (reference value: 0.56 %); assay type: functional
C2C12 [31] = experiment: Apoptotic rate in hyperglycemia-treated mouse C2C12 cells assessed as early apoptotic cells at 15 uM by AnnexinV-FITC/PI staining based flow cytometric analysis (reference value: 7.10 %); assay type: functional
[32] = Octanol/Water partition coefficient, log P of the compound by HPLC-UV analysis
C2C12 [33] = experiment: Angiogenic activity in mouse C2C12 cells assessed as reversal of hyperglycemia-induced reduction in cell number by measuring cell proliferation measured after 12 to 36 hrs; assay type: functional, cell-based
[34] = Toxicity in diabetic HLI C57BL/6 mouse model assessed as liver pathology at 30 mg/kg, IM administered by HE staining based assay; assay type: organism-based; settings: in vivo
C2C12 [35] = experiment: Induction of proliferation of hyperglycemia-induced mouse C2C12 cell apoptosis assessed as decrease in Annexin V/PI-positive cells at 30 uM pretreated with compound under hyperglycemia condition for 12 hr followed by hypoxia for 24 hrs; assay type: functional, cell-based; settings: time 36.0 hrs

Sequence of Hypoxia-inducible factor 1-alpha (Mus musculus) (Q61221 whole entry, the tested form may be a part): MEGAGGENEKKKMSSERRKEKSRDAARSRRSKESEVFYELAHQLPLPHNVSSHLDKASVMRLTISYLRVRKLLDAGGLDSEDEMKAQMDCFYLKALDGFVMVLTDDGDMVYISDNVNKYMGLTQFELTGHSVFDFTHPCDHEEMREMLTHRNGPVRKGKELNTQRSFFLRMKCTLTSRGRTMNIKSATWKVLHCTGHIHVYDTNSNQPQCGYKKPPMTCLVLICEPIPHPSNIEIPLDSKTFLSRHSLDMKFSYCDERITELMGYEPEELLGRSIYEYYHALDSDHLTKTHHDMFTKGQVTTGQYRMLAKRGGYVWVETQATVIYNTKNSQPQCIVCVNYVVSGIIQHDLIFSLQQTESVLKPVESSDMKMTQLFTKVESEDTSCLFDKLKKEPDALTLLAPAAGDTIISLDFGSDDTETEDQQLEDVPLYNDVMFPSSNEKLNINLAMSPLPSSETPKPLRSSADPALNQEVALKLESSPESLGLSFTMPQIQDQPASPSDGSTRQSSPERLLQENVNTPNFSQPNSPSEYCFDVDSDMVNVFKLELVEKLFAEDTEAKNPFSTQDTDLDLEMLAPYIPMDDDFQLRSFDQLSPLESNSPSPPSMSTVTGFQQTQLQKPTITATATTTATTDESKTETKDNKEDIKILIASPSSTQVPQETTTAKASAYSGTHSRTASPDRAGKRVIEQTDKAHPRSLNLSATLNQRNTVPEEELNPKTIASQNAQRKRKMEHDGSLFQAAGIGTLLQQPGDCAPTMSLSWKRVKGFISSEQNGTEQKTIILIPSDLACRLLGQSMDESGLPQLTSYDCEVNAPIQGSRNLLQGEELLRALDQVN

In the case of `COc1ccc(Cc2cccc(O[C@@H]3O[C@H](CO)[C@@H](O)[C@H](O)[C@H]3O)c2)cc1`, the inhibition (C2C12 [1]) is reported as “Active”, the Activity (C2C12 [2]) is reported as “inactive” and the Activity (C2C12 [3]) is reported as “Active”. For the same molecule, the Activity (C2C12 [4]) was “Active”, the “fold change (FC)” value (MOVAS-1 [5]) was 2 and the viability at 30 µM (C2C12 [6]) was 82%. The Activity (C2C12 [7]) was “Active”, the Activity (C2C12 [8]) was 3.94% and the inhibition [9] was “Active”. The Activity (Mus musculus [10]) was “Active”, the Activity (Mus musculus [11]) was “Active” and the Activity (C2C12 [12]) was “inactive”. The Activity (C2C12 [13]) was “Active”, the pKa [14] was over 14 and the viability at 15 µM (C2C12 [15]) was 88.9%. For the same molecule, the Activity (MOVAS-1 [16]) was “inactive”, the Activity (C2C12 [17]) was “inactive” and the Activity (C2C12 [18]) was “Active”. For the same molecule, the Activity (HUVEC) was “inactive”, the Activity (MOVAS-1 [19]) was “Active” and the Activity (C2C12 [20]) was “Active”. For the same molecule, the Activity (C2C12 [21]) was “Active”, the Activity [22] was “Non-Toxic” and the Activity (C2C12 [23]) was 0.16%. The Papp B→A [24] was 1.11 ×10⁻⁶ cm/s, the Activity (C2C12 [25]) was “Active” and the Activity (C2C12 [26]) was “inactive”. For the same molecule, the viability at 30 µM (C2C12 [27]) was 93.6%, the Activity (Mus musculus [28]) was “Active” and the Activity (C2C12 [29]) was “inactive”. For the same molecule, the Activity (C2C12 [30]) was 0.35%, the Activity (C2C12 [31]) was 3.14% and the logP [32] was 0.971. The EC50 (C2C12 [33]) was 17.3 µM, the Activity [34] was “Non-Toxic” and the Activity (C2C12 [35]) was “Active”.
